Source: ChEMBL document CHEMBL1201862, “PubChem BioAssay data set” (2004)
Active and inactive are the calls of the source.

Assays:
[1] = growth suppression of PTEN-null colon cells, dose response, cell-based, HCT116 PTEN knockout (AID 1047); assay type: functional;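 note: HCT116 colon tumor cells with PTEN knocked out; cells exposed to compound for 60 hours before readout; potency for loss of cell viability measured by luminescence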
[2] = growth suppression of beta-catenin-knockout colon cells, dose response, cell-based, HCT116, human colon tumor (AID 1045); assay type: functional;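 note: HCT116 colon tumor cells with beta catenin knocked out; cells exposed to compound for 60 hours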
[3] = Shn3 3'UTR reporter inhibitors, dose response, cell-based, Clone20 osteoblasts, firefly luciferase, cherry-picked (AID 624132); assay type: functional;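 note: firefly luciferase luminescence from reporter carrying the Shn3 3'UTR in osteoblasts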
[4] = HepG2 cell cytotoxicity, dose response, cytotoxicity control for Shn3 inhibitor project, CellTiter-Glo, cherry-picked (AID 624134); assay type: functional, cell-based
[5] = control 3'UTR Renilla luciferase suppression, dose response, counter-screen for Shn3 inhibitor project, cell-based, Clone20-Shn3RL, cherry-picked (AID 624133); assay type: functional
[6] = molecular target: T1, Replicative DNA helicase DnaB (Mycobacterium tuberculosis, UniProt P9WMR3); assay: DnaB intein splicing inhibitors, dose response, biochemical, cell-free fluorescence (AID 449749); assay type: functional
T1 sequence (P9WMR3 whole entry): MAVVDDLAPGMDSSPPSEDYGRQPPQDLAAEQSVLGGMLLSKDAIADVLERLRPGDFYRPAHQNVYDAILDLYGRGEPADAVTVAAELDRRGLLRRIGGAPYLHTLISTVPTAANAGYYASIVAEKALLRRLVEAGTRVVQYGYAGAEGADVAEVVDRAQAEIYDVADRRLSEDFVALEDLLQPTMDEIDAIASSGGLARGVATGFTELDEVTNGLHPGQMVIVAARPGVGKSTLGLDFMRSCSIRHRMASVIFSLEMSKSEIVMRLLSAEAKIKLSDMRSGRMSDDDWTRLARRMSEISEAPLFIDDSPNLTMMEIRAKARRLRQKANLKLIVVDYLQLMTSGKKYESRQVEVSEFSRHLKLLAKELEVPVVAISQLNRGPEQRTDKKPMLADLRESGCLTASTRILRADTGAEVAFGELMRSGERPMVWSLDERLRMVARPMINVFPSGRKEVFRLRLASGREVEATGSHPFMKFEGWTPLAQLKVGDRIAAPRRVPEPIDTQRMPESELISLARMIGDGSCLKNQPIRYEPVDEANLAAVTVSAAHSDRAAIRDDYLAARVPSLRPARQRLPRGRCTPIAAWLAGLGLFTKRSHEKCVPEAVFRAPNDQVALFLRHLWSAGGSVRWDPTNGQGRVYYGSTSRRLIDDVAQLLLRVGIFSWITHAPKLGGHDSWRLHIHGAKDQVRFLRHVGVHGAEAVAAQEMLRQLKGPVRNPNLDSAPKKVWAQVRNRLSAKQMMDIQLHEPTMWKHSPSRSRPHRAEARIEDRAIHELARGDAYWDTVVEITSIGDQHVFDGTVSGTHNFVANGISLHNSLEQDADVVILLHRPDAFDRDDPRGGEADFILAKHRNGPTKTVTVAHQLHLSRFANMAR

Protein RecA = molecular target: T2, Protein RecA (Mycobacterium tuberculosis, UniProt P9WHJ3); assay: Fluorescence Cell-Free Homogeneous Dose Retest to Identify Inhibitors of RecA-Intein Splicing Activity. [Related pubchem assays (depositor defined):AID2097, AID2223, AID489010, AID492950]; assay type: functional
T2 sequence (P9WHJ3 whole entry): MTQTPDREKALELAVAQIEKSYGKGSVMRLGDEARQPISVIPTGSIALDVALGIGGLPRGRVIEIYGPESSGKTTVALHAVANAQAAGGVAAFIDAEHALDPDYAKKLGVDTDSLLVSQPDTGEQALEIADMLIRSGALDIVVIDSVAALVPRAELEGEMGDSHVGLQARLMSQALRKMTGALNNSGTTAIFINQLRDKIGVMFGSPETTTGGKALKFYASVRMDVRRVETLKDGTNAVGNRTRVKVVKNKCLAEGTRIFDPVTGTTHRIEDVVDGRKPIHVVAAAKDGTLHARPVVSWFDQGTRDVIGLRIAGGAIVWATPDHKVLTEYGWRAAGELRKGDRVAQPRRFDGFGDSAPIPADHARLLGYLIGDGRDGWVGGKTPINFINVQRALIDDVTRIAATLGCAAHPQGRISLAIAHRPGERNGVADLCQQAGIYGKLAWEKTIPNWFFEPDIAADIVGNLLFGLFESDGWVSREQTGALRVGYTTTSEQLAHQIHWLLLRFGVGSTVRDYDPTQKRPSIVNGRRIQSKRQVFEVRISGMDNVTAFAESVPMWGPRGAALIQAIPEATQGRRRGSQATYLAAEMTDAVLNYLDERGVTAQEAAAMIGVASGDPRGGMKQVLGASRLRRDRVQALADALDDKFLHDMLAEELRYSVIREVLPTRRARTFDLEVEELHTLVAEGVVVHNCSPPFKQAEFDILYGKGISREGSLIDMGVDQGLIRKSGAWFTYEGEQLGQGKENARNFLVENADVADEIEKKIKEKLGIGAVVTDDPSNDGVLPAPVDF

Vero = assay: cells; assay type: functional; settings: Chlorocebus sabaeus
[7] = inhibitors of intracellular T. cruzi replication, confirmation, NIH3T3 host cells, beta-gal luminescence (AID 2044); assay type: functional, cell-based;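 note: intracellular parasites grown in NIH/3T3 mouse fibroblasts as host cells; luminescent beta-galactosidase reporter signal from transgenic T. cruzi replicating inside host cells; inhibitors lower the luminescence signal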
[8] = cytotoxicity toward NIH3T3 fibroblasts, dose response, counter-screen, cell-based, ATP luminescence, mouse fibroblasts (AID 2010); assay type: functional;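 note: cells exposed to compound for about 90 hours before reading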
Cytochrome P450 2C9 = Cytochrome P450 2C9 (Homo sapiens, UniProt P11712)
INS1 = assay: beta cell apoptosis inhibitors, cytokine rescue, dose response, luminescence, retest (AID 449756); assay type: functional, cell-based; settings: Rattus norvegicus;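 note: cell death triggered by IL-1 beta plus TNF-alpha plus IFN-gamma mixture; protective hits raise ATP signal compared with cytokine alone wells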
[9] = molecular target: T3, Ubiquitin-conjugating enzyme E2 N (Homo sapiens, UniProt P61088); assay type: functional;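 note: Dose-response confirmation in a TR-FRET assay detecting UBC13-driven polyubiquitin chain formation, inhibition measured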
T3 sequence (P61088 whole entry): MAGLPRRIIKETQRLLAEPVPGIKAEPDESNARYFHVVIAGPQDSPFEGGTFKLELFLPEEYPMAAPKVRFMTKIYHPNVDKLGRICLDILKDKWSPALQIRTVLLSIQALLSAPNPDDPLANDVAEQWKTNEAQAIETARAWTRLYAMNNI

[10] = NIH-3T3 fibroblast cytotoxicity, dose response, cytotoxicity control, cell-based, fluorescence, Alamar Blue, secondary assay (AID 2327); assay type: functional;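 note: NIH-3T3 mouse fibroblasts cultured with fluconazole at 8 µg/mL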
[11] = C. albicans growth with fluconazole, confirmation, fluorescence, retest (AID 2467); assay type: functional, cell-based
Protein skinhead-1 = molecular target: T4, Protein skinhead-1 (Caenorhabditis elegans, UniProt P34707); assay type: functional
T4 sequence (P34707 whole entry): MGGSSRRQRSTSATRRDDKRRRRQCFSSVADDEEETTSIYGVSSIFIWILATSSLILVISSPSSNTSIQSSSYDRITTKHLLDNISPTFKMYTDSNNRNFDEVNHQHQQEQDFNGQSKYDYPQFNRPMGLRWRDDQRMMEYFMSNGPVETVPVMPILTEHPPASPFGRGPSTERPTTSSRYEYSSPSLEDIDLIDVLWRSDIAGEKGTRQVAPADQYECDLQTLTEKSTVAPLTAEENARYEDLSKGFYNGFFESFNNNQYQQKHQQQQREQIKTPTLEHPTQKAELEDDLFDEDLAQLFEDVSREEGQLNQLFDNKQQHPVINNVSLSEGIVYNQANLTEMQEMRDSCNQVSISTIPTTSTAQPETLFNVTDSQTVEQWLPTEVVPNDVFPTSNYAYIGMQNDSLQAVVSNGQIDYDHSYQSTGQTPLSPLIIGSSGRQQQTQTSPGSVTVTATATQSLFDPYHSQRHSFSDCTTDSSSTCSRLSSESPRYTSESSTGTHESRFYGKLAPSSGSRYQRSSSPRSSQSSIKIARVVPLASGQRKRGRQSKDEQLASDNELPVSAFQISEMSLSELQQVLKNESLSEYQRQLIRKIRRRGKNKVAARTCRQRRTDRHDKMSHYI

[12] = LGR2 antagonists, dose response, cell-based, HEK293, CRE-luciferase reporter, cherry pick, set 2 (AID 743343); assay type: functional;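 note: transfected cells were stimulated with diluted bursicon conditioned medium after compound addition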
[13] = MC4R antagonists, dose response, counter-screen for LGR2 antagonist project, cell-based, plate reader, cherry pick (AID 743444); assay type: functional;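 note: transfected HEK 293 cells stimulated with alpha-MSH peptide; potency of inhibitors of the alpha-MSH evoked signal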
Streptokinase A = molecular target: T5, Streptokinase A (Streptococcus pyogenes serotype M1, UniProt P10520); assay: S. pyogenes streptokinase expression inhibitors, potency, dose response, plasminogen activation absorbance, OD405 (AID 1914); assay type: functional, Streptococcus pyogenes M1 GAS;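 note: secreted streptokinase activity via plasminogen activation per viability signal from cell pellet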
T5 sequence (P10520 whole entry): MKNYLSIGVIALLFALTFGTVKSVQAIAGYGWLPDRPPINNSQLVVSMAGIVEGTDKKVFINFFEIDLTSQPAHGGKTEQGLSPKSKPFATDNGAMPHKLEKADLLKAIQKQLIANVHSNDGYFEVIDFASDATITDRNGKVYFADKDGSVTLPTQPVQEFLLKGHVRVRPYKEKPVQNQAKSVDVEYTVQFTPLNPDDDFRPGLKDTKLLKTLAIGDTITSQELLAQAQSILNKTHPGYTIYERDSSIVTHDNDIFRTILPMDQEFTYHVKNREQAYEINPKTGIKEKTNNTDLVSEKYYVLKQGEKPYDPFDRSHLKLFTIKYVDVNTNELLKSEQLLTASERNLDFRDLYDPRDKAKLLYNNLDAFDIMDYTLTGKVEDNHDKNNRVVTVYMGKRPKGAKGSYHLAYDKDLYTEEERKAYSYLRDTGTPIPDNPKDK

Streptococcus = assay: Group A Streptococcus viability loss, dose response, counter-screen for streptokinase expression inhibitor project, luminescence, BacTiterGlo (AID 1915); assay type: functional, organism-based;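 note: potency for reduction of bacterial viability or growth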
Cytochrome P450 3A4 = Cytochrome P450 3A4 (Homo sapiens, UniProt P08684);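 note: CYP3A4 tested as one member of a cytochrome P450 panel screen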
[14] = inhibitors of firefly luciferase expression or activity, dose response, H4 neuroglioma cells, luminescence (AID 1990); assay type: functional, cell-based
[15] = Luminescence Cell-Based Dose Response HTS to Identify Inhibitors of 5'UTR Stem-Loop Driven Prion Protein mRNA Translation in H4 Neuroglioblastoma Cells. [Related pubchem assays: 1827 (Project Summary), 1813 (Primary HTS)]; assay type: functional
[16] = inhibitors of SNCA 5'UTR-driven reporter translation, confirmation, H4 neuroglioma cells, luminescence (AID 1988); assay type: functional, cell-based

Cytochrome P450 2C9, sequence (P11712 whole entry): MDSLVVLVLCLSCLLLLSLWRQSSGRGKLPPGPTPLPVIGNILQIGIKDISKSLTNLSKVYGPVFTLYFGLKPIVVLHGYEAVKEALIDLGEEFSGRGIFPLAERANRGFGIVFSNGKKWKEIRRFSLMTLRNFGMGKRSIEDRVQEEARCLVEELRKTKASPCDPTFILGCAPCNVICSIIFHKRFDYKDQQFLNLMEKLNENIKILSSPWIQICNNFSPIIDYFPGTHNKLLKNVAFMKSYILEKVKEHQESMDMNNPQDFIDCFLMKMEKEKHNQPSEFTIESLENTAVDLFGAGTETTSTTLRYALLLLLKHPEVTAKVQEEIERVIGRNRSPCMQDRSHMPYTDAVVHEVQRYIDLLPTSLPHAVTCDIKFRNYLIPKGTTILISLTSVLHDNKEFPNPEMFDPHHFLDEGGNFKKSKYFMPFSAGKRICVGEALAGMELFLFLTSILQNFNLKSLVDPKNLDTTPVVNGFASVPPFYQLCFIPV
Cytochrome P450 3A4, sequence (P08684 whole entry): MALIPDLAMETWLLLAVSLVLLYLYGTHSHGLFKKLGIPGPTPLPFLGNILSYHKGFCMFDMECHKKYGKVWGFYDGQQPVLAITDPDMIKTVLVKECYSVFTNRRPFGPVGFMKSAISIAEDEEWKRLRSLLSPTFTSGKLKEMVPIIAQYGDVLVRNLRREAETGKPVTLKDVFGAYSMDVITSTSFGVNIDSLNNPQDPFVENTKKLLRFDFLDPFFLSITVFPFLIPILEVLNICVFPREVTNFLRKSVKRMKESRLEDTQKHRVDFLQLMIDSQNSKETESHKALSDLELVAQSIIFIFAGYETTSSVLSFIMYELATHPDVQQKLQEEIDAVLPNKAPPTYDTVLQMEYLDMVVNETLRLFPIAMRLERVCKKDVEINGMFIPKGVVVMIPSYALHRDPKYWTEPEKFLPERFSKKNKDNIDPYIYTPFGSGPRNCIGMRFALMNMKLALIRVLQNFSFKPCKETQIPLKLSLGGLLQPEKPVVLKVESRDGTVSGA

O=C(/C=C/c1ccc(OCc2ccccc2)c(OCc2ccccc2)c1)c1cccnc1
EC50 [1]: 8.72 µM (active) | EC50 [2]: 6.92 µM (active) | AC50 [3]: 5.19 µM (active) | AC50 [4]: 40.5 µM (active) | AC50 [5]: 19.3 µM (active)

CC1CCN(S(=O)(=O)c2ccc3c(c2)oc(=O)n3CC(=O)N2c3ccccc3CC2C)CC1 (stereo not given)
EC50 [1]: 39.5 µM (active) | EC50 [2]: 30.9 µM (active)

CCOC(=O)c1nnc(-c2ccccc2)nc1Sc1c(Cl)cccc1Cl
EC50 [1]: 26.9 µM (active) | EC50 [2]: 27.7 µM (active) | AC50 [6]: 2.22 µM (active) | EC50 (Protein RecA): > 380 µM (inconclusive)

Cc1ccccc1OCc1nc2ccccc2c(=O)n1/N=C/c1c[nH]nc1-c1ccc(Br)cc1
EC50 [1]: 7.05 µM (active) | EC50 [2]: 7.51 µM (active)

O=C(/C=C/c1ccncc1)c1ccc2c(c1)OCCO2
CC50 (Vero): > 25 µM (active)

C(=C1/CCCC2=C1Nc1ncnn1C2c1ccccc1)/c1ccccc1 (stereo not given)
EC50 [7]: 3.45 µM (active) | EC50 [1]: 3.45 µM (active) | EC50 [8]: 6.87 µM (active) | EC50 [2]: 2.58 µM (active) | AC50 (Cytochrome P450 2C9): 7.94 µM (inconclusive)

C[C@H]1CN([C@@H](C)CO)S(=O)(=O)c2ccc(Br)cc2O[C@@H]1CN(C)Cc1cccc(F)c1
CC50 (Vero): > 25 µM (active)

O=C(NN=C(c1ccccc1)c1ccccn1)c1ccccc1
AC50 (INS1): 0.736 µM (active) | CC50 (Vero): 3.11 µM (active)

CC1CCN(c2c(NCc3ccc(C(=O)N4CCN(C5CCCCC5)CC4)cc3)c(=O)c2=O)CC1
IC50 [9]: > 20 µM (inactive)

COc1ccc(C=NN=C2c3ccccc3-c3ccccc32)cc1O
CC50 (Vero): > 25 µM (active)

Cc1ccc(-c2noc(CCC(=O)NCC3CCN(Cc4cccc(C)c4)CC3)n2)cc1
IC50 [9]: > 20 µM (inactive)

O=C(CCN1C(=O)/C(=C\c2ccccc2)SC1=S)N1CCOCC1
CC50 (Vero): 24.5 µM (active)

Cc1ccccc1Nc1nnc(SCC(=O)NC(=O)Nc2ccc3c(c2)OCCO3)s1
EC50 [1]: 14.6 µM (active) | EC50 [2]: 14.5 µM (active)

C/C(=N\OCc1ccc(C#N)cc1)c1cc2ccccc2o1
EC50 [10]: > 160 µM (inconclusive) | EC50 [11]: > 38 µM (not active) | IC50 (Protein skinhead-1): 64 µM (inactive)

C=CCNC(=O)c1c(Cl)nc(C)c([N+](=O)[O-])c1C
AC50 [12]: 42.7 µM (active) | AC50 [13]: 55.3 µM (active)

Cc1nc(N)c2c(Cc3cccc4ccccc34)nn(C(C)(C)C)c2n1
IC50 [9]: > 20 µM (inactive)

COc1ccccc1/C=C1\CCCC2=C1Nc1nnnn1C2c1ccccc1OC (stereo not given)
EC50 [1]: 8.85 µM (active) | EC50 [2]: 6.96 µM (active) | AC50 [3]: 36 µM (active)

Cc1sc(NC(=O)c2ccco2)c(C(c2ccccc2)N2CCC(C)CC2)c1C (stereo not given)
EC50 [7]: 1.09 µM (active) | EC50 [8]: > 60 µM (not active) | CC50 (Vero): 14.1 µM (active)

CCc1sc(N(C(=O)Cc2ccccc2)c2cccc(F)c2)nc1-c1ccc(C)cc1
EC50 (Streptokinase A): 32.6 µM (active) | EC50 (Streptococcus): > 150 µM (not active) | IC50 (Protein skinhead-1): > 100 µM (inactive) | AC50 (Cytochrome P450 3A4): 17.8 µM (inconclusive) | AC50 (Cytochrome P450 2C9): 6.31 µM (inconclusive)

CCOC(=O)Cc1csc(N/C=C2/C(=O)N(c3ccc(C)c(C)c3)C(=O)c3ccccc32)n1
EC50 [14]: > 120 µM (not active) | EC50 [15]: 10.1 µM (active) | EC50 [16]: > 120 µM (not active) | EC50 [1]: 15.1 µM (active) | EC50 [2]: 10 µM (active)
